Tested on: Secretion of ApoB
Assay: Quantification of the secretion of ApoB in HepG2 cells
Assay type: cell-based
Settings: Homo sapiens, HepG2, 24 h, 24 hours of incubation with test compound, immunoprecipitation of apoB from medium, read-out: pIC50 value (=-log IC50 value), secretion of ApoB (converted)
Description: HepG2 cells were cultured in 24-well plates in MEM Rega 3 containing 10% fetal calf serum. At 70% confluency, the medium was changed and the test compound or carrier (DMSO, 0.4% final concentration) was added. After 24 hours of incubation, the medium was transferred to Eppendorf tubes and cleared by centrifugation. A sheep antibody directed against either apoB was added to the supernatant and the mixture was kept at 8° C. for 24 hours. Then, rabbit anti-sheep antibody was added and the immune complex was allowed to precipitate for 24 hours at 8° C. The immunoprecipitate was pelleted by centrifugation for 25 minutes at 1320 g and washed twice with a buffer containing 40 mM Mops, 40 mM NaH2PO4, 100 mM NaF, 0.2 mM DTT, 5 mM EDTA, 5 mM EGTA, 1% Triton-X-100, 0.5% sodium deoxycholate (DOC), 0.1% SDS, 0.2 μM leupeptin and 0.2 μM PMSF. Radioactivity in the pellet was quantified by liquid scintillation-counting. The IC50 values are usually converted to pIC50 values (=−log IC50 value) for ease of use.

SMILES	IC50
CC(C)NC(=O)C(c1ccccc1)N1CCN(c2ccc(-n3ncn(C(C)C)c3=O)cc2)CC1 (centres unmarked) [Compound 115]	316 to 3160 nM
C=CCNC(=O)C(c1ccccc1)N1CCN(c2ccc(-n3ncn(C(C)C)c3=O)cc2)CC1 (centres unmarked) [Compound 116]	316 to 3160 nM
COCCNC(=O)C(c1ccccc1)N1CCN(c2ccc(-n3ncn(C(C)C)c3=O)cc2)CC1 (centres unmarked) [Compound 117]	316 to 3160 nM
CCCCNC(=O)C(c1ccccc1)N1CCN(c2ccc(-n3ncn(C(C)C)c3=O)cc2)CC1 (centres unmarked) [Compound 118]	316 to 3160 nM
CC(C)CNC(=O)C(c1ccccc1)N1CCN(c2ccc(-n3ncn(C(C)C)c3=O)cc2)CC1 (centres unmarked) [Compound 119]	316 to 3160 nM
CCCCCNC(=O)C(c1ccccc1)N1CCN(c2ccc(-n3ncn(C(C)C)c3=O)cc2)CC1 (centres unmarked) [Compound 120]	316 to 3160 nM
CC(C)n1cnn(-c2ccc(N3CCN(C(C(=O)NCc4ccccn4)c4ccccc4)CC3)cc2)c1=O (centres unmarked) [Compound 121]	316 to 3160 nM
CC(C)n1cnn(-c2ccc(N3CCN(C(C(=O)NCC(F)(F)F)c4ccccc4)CC3)cc2)c1=O (centres unmarked) [Compound 122]	316 to 3160 nM
CC(C)n1cnn(-c2ccc(N3CCN(C(C(=O)NCc4ccccc4)c4ccccc4)CC3)cc2)c1=O (centres unmarked) [Compound 123]	31.6 to 316 nM
CCCn1ncn(-c2ccc(N3CCN(C(C(=O)Nc4ccccc4)c4ccccc4)CC3)cc2)c1=O (centres unmarked) [Compound 124]	31.6 to 316 nM
Cc1cnc(NC(=O)C(c2ccccc2)N2CCN(c3ccc(-n4cnn(C(C)C)c4=O)cc3)CC2)s1 (centres unmarked) [Compound 125]	31.6 to 316 nM
CC(C)n1ncn(-c2ccc(N3CCN(C(C(=O)NCc4ccc(N)cc4)c4ccccc4)CC3)cc2)c1=O (centres unmarked) [Compound 126]	316 to 3160 nM
CC(C)n1ncn(-c2ccc(N3CCN(C(C(=O)NCc4nc5ccccc5[nH]4)c4ccccc4)CC3)cc2)c1=O (centres unmarked) [Compound 127]	316 to 3160 nM
CCCNC(=O)C(CN1CCN(c2ccc(-n3cnn(C(C)C)c3=O)cc2)CC1)c1ccccc1 (centres unmarked) [Compound 128]	31.6 to 316 nM
CC(C)n1ncn(-c2ccc(N3CCN(CC(C(=O)Nc4ccccc4)c4ccccc4)CC3)cc2)c1=O (centres unmarked) [Compound 129]	316 to 3160 nM
CC(C)n1ncn(-c2ccc(N3CCN(CC(C(=O)NCc4ccccc4)c4ccccc4)CC3)cc2)c1=O (centres unmarked) [Compound 130]	316 to 3160 nM
COCCNC(=O)C(c1ccccc1)N1CCN(c2ccc(-n3cnn(C(C)C)c3=O)cc2)CC1 (centres unmarked) [Compound 131]	316 to 3160 nM
CC(C)n1ncn(-c2ccc(N3CCN(C(C(=O)NCCC#N)c4ccccc4)CC3)cc2)c1=O (centres unmarked) [Compound 132]	316 to 3160 nM
CCNC(=O)C(c1ccccc1)(c1ccccc1)N1CCN(c2ccc(-n3cnn(C(C)C)c3=O)cc2)CC1 [Compound 133]	316 to 3160 nM
CCCNC(=O)C(c1ccccc1)(c1ccccc1)N1CCN(c2ccc(-n3cnn(C(C)C)c3=O)cc2)CC1 [Compound 134]	316 to 3160 nM
CC(C)NC(=O)C(c1ccccc1)(c1ccccc1)N1CCN(c2ccc(-n3cnn(C(C)C)c3=O)cc2)CC1 [Compound 135]	316 to 3160 nM
CNC(=O)C(c1ccccc1)N1CCN(c2ccc(-n3cnn(C(C)C)c3=O)cc2)CC1 (centres unmarked) [Compound 136]	316 to 3160 nM
CC(C)n1ncn(-c2ccc(N3CCN(C(C(=O)N(C)C)c4ccccc4)CC3)cc2)c1=O (centres unmarked) [Compound 137]	316 to 3160 nM

SMILES	IC50
CCOC(=O)C(CN1CCN(c2ccc(-n3cnn(C(C)C)c3=O)cc2)CC1)c1ccccc1 (centres unmarked) [Compound 138]	316 to 3160 nM
CCNC(=O)C(c1ccccc1)N1CCC(c2ccc(-n3cnn(C(C)C)c3=O)cc2)CC1 (centres unmarked) [Compound 139]	31.6 to 316 nM
CC(C)NC(=O)C(c1ccccc1)N1CCC(c2ccc(-n3cnn(C(C)C)c3=O)cc2)CC1 (centres unmarked) [Compound 140]	31.6 to 316 nM
CNC(=O)C(c1ccccc1)N1CCC(c2ccc(-n3cnn(C(C)C)c3=O)cc2)CC1 (centres unmarked) [Compound 142]	31.6 to 316 nM
CC(C)n1ncn(-c2ccc(C3CCN(C(C(=O)NCC(F)(F)F)c4ccccc4)CC3)cc2)c1=O (centres unmarked) [Compound 143]	31.6 to 316 nM
CC(C)n1ncn(-c2ccc(C3CCN(C(C(=O)N(C)C)c4ccccc4)CC3)cc2)c1=O (centres unmarked) [Compound 144]	316 to 3160 nM
CC(C)n1ncn(-c2ccc(N3CCN(C(C(N)=O)c4ccccc4)CC3)cc2)c1=O (centres unmarked) [Compound 145]	316 to 3160 nM
COC(=O)C(c1ccccc1)N1CCN(c2ccc(-n3cnn(C(C)C)c3=O)cn2)CC1 (centres unmarked) [Compound 146]	316 to 3160 nM
CC(C)n1ncn(-c2ccc(N3CCN(CCC(C(=O)N(C)C)(c4ccccc4)c4ccccc4)CC3)cc2)c1=O [Compound 147]	316 to 3160 nM
CCCNC(=O)C(c1ccccc1)C1CCN(c2ccc(-n3cnn(CC)c3=O)cc2)CC1 (centres unmarked) [Compound 148]	316 to 3160 nM
CCCNC(=O)C(c1ccccc1)C1CCN(c2ccc(-n3cnn(CCC)c3=O)cc2)CC1 (centres unmarked) [Compound 149]	316 to 3160 nM
CCCCn1ncn(-c2ccc(N3CCC(C(C(=O)NCCC)c4ccccc4)CC3)cc2)c1=O (centres unmarked) [Compound 150]	31.6 to 316 nM
CCCCCn1ncn(-c2ccc(N3CCC(C(C(=O)NCCC)c4ccccc4)CC3)cc2)c1=O (centres unmarked) [Compound 151]	31.6 to 316 nM
C=CCn1ncn(-c2ccc(N3CCC(C(C(=O)NCCC)c4ccccc4)CC3)cc2)c1=O (centres unmarked) [Compound 152]	316 to 3160 nM
CCCNC(=O)C(c1ccccc1)C1CCN(c2ccc(-n3cnn(CC(C)C)c3=O)cc2)CC1 (centres unmarked) [Compound 153]	31.6 to 316 nM
CCCNC(=O)C(c1ccccc1)C1CCN(c2ccc(-n3cnn(CC4CC4)c3=O)cc2)CC1 (centres unmarked) [Compound 154]	31.6 to 316 nM
CCCNC(=O)C(c1ccccc1)C1CCN(c2ccc(-n3cnn(Cc4ccccc4)c3=O)cc2)CC1 (centres unmarked) [Compound 155]	31.6 to 316 nM
CCCCn1ncn(-c2ccc(N3CCC(C(C(=O)NCc4ccccc4)c4ccccc4)CC3)cc2)c1=O (centres unmarked) [Compound 156]	31.6 to 316 nM
CCCCCn1ncn(-c2ccc(N3CCC(C(C(=O)NCc4ccccc4)c4ccccc4)CC3)cc2)c1=O (centres unmarked) [Compound 157]	31.6 to 316 nM
O=C(NCc1ccccc1)C(c1ccccc1)C1CCN(c2ccc(-n3cnn(Cc4ccccc4)c3=O)cc2)CC1 (centres unmarked) [Compound 158]	31.6 to 316 nM
COC(=O)C(c1ccccc1)N1CCN(c2ccc(-n3nc(C)n(C(C)C)c3=O)cc2)CC1 (centres unmarked) [Compound 159]	316 to 3160 nM
CC(C)n1ncn(-c2ccc(N3CCN(CCCC(C(=O)Nc4ccccc4)c4ccccc4)CC3)cc2)c1=O (centres unmarked) [Compound 160]	316 to 3160 nM
CCNC(=O)C(CCN1CCN(c2ccc(-n3cnn(C(C)C)c3=O)cc2)CC1)c1ccccc1 (centres unmarked) [Compound 161]	316 to 3160 nM

SMILES	IC50
CC(C)n1ncn(-c2ccc(N3CCN(CCC(C(=O)NCc4ccccc4)c4ccccc4)CC3)cc2)c1=O (centres unmarked) [Compound 162]	316 to 3160 nM
CCNC(=O)C(c1ccccc1)N1CCN(c2ccc(-n3cnn(C(C)C)c3=O)cc2)CC1 (centres unmarked) [Compound 163]	31.6 to 316 nM
CCCNC(=O)C(c1ccccc1)N1CCN(c2ccc(-n3cnn(C(C)C)c3=O)cc2)CC1 (centres unmarked) [Compound 164]	31.6 to 316 nM
CC(C)n1ncn(-c2ccc(N3CCN(C(C(=O)NCc4ccccc4)c4ccccc4)CC3)cc2)c1=O (centres unmarked) [Compound 165]	316 to 3160 nM
CC(C)n1ncn(-c2ccc(N3CCN(C(C(=O)NCC(F)(F)F)c4ccccc4)CC3)cc2)c1=O (centres unmarked) [Compound 166]	316 to 3160 nM
Cn1ncn(-c2ccc(N3CCC(C(C(=O)NCc4ccccc4)c4ccccc4)CC3)cc2)c1=O (centres unmarked) [Compound 167]	316 to 3160 nM
CC(C)n1ncn(-c2ccc(N3CCC(C(C(=O)NCc4ccccc4)c4ccccc4)CC3)cc2)c1=O (centres unmarked) [Compound 168]	31.6 to 316 nM
COC(=O)C(CCN1CCN(c2ccc(-n3cnn(C(C)C)c3=O)cc2)CC1)c1ccccc1 (centres unmarked) [Compound 169]	316 to 3160 nM
CC(C)n1ncn(-c2ccc(N3CCN(C(C(=O)NCC(F)(F)F)c4ccccc4)CC3)nc2)c1=O (centres unmarked) [Compound 170]	316 to 3160 nM
COC(=O)C(c1ccccc1)N1CCC(c2ccc(-n3cnn(C(C)C)c3=O)cc2)CC1 (centres unmarked) [Compound 171]	31.6 to 316 nM
COC(=O)C(c1ccccc1)N1CCN(c2ccc(-n3cnn(C(C)C)c3=O)cc2)CC1 (centres unmarked) [Compound 172]	316 to 3160 nM
COC(=O)C(c1ccccc1)(c1ccccc1)N1CCN(c2ccc(-n3cnn(C(C)C)c3=O)cc2)CC1 [Compound 173]	31.6 to 316 nM
CCC(C)n1ncn(-c2ccc(N3CCN(C(C(=O)OC)c4ccccc4)CC3)cc2)c1=O (centres unmarked) [Compound 174]	31.6 to 316 nM
CCNC(=O)C(c1ccccc1)N1CCN(c2ccc(-n3cnn(C(C)CC)c3=O)cc2)CC1 (centres unmarked) [Compound 175]	31.6 to 316 nM
CCCC(C(=O)Nc1ccc2c(c1)CCC2)N1CCN(c2ccc(-n3cnn(C(C)C)c3=O)cc2)CC1 (centres unmarked) [Compound 177]	31.6 to 316 nM
CCC(C)n1ncn(-c2ccc(N3CCN(C(C(=O)NCC(F)(F)F)c4ccccc4)CC3)cc2)c1=O (centres unmarked) [Compound 178]	31.6 to 316 nM
C=CCn1ncn(-c2ccc(N3CCC(C(C(=O)NCc4ccccc4)c4ccccc4)CC3)cc2)c1=O (centres unmarked) [Compound 180]	31.6 to 316 nM
CC(C)Cn1ncn(-c2ccc(N3CCC(C(C(=O)NCc4ccccc4)c4ccccc4)CC3)cc2)c1=O (centres unmarked) [Compound 181]	31.6 to 316 nM
O=C(NCc1ccccc1)C(c1ccccc1)C1CCN(c2ccc(-n3cnn(CC4CC4)c3=O)cc2)CC1 (centres unmarked) [Compound 182]	31.6 to 316 nM
O=C(NCc1ccccc1)C(c1ccccc1)C1CCN(c2ccc(-n3cnn(C/C=C/c4ccccc4)c3=O)cc2)CC1 (centres unmarked) [Compound 183]	31.6 to 316 nM
COc1ccc(NC(=O)C(c2ccccc2)N2CCN(c3ccc(-n4cnn(C(C)C)c4=O)cc3)CC2)c(OC)c1 (centres unmarked) [Compound 184]	31.6 to 316 nM
COc1ccccc1NC(=O)C(c1ccccc1)N1CCN(c2ccc(-n3cnn(C(C)C)c3=O)cc2)CC1 (centres unmarked) [Compound 185]	316 to 3160 nM
